Measured values from paper PMC5766618, “Paper-based inkjet bioprinting to detect fluorescence resonance energy transfer for the assessment of anti-inflammatory activity” (Scientific Reports, 2018).

Target: cAMP-specific 3′,5′-cyclic phosphodiesterase 4B (PDE4B) (Homo sapiens, UniProt Q07343)
Sequence (Q07343 whole entry): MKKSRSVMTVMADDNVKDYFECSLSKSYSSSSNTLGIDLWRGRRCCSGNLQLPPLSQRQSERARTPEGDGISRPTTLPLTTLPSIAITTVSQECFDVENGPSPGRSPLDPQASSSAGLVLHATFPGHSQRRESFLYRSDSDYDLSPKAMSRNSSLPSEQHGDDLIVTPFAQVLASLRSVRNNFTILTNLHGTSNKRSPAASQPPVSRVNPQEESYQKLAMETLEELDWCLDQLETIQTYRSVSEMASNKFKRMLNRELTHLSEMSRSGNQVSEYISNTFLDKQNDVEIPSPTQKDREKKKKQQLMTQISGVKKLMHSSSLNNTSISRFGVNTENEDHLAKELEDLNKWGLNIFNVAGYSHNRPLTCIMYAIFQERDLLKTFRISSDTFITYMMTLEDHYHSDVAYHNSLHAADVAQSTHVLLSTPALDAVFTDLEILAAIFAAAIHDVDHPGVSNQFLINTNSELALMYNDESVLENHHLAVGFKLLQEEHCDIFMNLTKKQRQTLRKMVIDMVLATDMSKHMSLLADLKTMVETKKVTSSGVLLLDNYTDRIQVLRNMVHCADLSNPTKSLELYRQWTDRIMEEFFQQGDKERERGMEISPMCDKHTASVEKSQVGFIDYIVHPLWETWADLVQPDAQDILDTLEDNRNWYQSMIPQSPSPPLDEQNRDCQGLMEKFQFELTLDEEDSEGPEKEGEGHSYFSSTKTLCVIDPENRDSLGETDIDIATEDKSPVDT

With `COc1ccc(C2CNC(=O)C2)cc1OC1CCCC1` (stereo not shown) [roliparm] the “inkjet-printed paper-based competitive FRET cAMP assay of PDE4B inhibition (IM50)” value was 2.46e-13 mol.
